# Measurements taken from patent publication US6458838B1, “Adrenoleukodystrophy treatments” (Johns Hopkins University, priority 1999, dated 2002).
# Tests used:
# PMP69 = experiment: Semi-quantitative RT-PCR in primary fibroblasts; format: cell-based, human; conditions: X-ALD or normal primary fibroblasts, 5 mM 4-PBA for 2 days
# Experimental: (§1) Semi-quantitative RT-PCR was done on the mRNA isolated from these cells (FIG. 1). […] In addition, the expression of acyl-CoA oxidase (AOX), the rate-limiting enzyme in VLCFA β-oxidation, was not affected. Although previous studies have reported that ALDR mRNA was not detectable in fibroblasts by either northern or RT-PCR analyses, those RT-PCR studies used about 66 ng of CDNA; we used about 250 ng of cDNA.
# (§2) Semi-quantitative RT-PCR analysis. Total RNA from tissue culture cells (10^6-10^7 cells/sample) was isolated using TRizol Reagent™ (Life Technologies), treated with DNase I (100-200 units in 40 mM HCI, 10 mM NaCl, 6 mM MgCl2, pH 7.3), incubated at 37° C. for 30 min, extracted with phenol/chloroform, and precipitated with isopropanol. cDNA was generated using MMLV reverse transcriptase (RT) (Life Technologies). PCR was done in the linear range of amplification (determined for each primerpair-cDNA combination). For each cDNA sample, a ‘cocktail’ was prepared, containing PCR buffer (Promega), 200 µM of each DNTP, 1.5 mM MgCl2, 250 ng cDNA, 0.25 U of Taq polymerase (Promega) and […]. The ‘cocktail’ was divided into separate tubes containing cDNA specific primers.
# (§3) Primers. The PCR primers used are listed below. In the parentheses, h indicates human and m, mouse; this is followed by the gene name, product size and annealing temperature. For primer sequences, F is forward and R is reverse. […]
# ALDP = experiment: Semi-quantitative RT-PCR in primary fibroblasts; format: cell-based, human; conditions: normal primary fibroblasts, 5 mM 4-PBA for 2 days
# Experimental: as §1, §2, §3
# PMP70 = experiment: Semi-quantitative RT-PCR in primary fibroblasts; format: cell-based, human; conditions: X-ALD or normal primary fibroblasts, 5 mM 4-PBA for 2 days
# Experimental: as §1, §2, §3
# PPARα = experiment: Semi-quantitative RT-PCR in primary fibroblasts; format: cell-based
# Description: In rodents PPARα expression is increased by peroxisomal proliferators. […] Thus, although the peroxisome proliferation response in mice may be, at least in part, through the documented PPARα pathway, the response in human cells seems to be through a newly discovered pathway that may involve Pex11α. […] This again indicates a newly discovered pathway for 4-PBA-induced peroxisome proliferation in humans and perhaps in rodents. AOX has been identified as the rate-limiting step in VLCFA β-oxidation.
# as §2
# Primers. The PCR primers used are listed below. […]
# ALDRP = experiment: Western blot with densitometry relative to β-actin; format: cell-based; conditions: normal mouse fibroblasts, after 10 days of exposure; data not shown
# Description: Open bars, untreated cells; hatched bars, treated cells.
# These findings indicate that ALDP1 and ALDRP may occupy equivalent domains within the peroxisomal membrane. This would agree with the observation that ALDP and ALDRP are generally expressed in different cell types.
# Western blot analysis. Tissue culture cells were scraped from tissue culture dishes using a policeman, into cold PBS solution and protease inhibitor cocktail (Boehringer). Samples were mixed (1:1) with 2× sample buffer. Total protein samples were fractionated by SDS-PAGE using a 7.5% gel using the method of Laemmlis'. […] Enhanced chemiluminescence (SuperSignal Substrate; Pierce, Rockford, Ill.) was used to detect bound antibody.
# [1] = tested on: human control primary skin fibroblasts; experiment: Immunofluorescence peroxisome counting; format: cell-based; conditions: 10 day exposure to 5 mM 4PBA
# Description: Peroxisomes were made visible with immunofluorescence using a polyclonal antibody to the C-terminal tripeptide (SKL) peroxisome targeting signal 1 (PTS1), which is present in most peroxisomal matrix proteins. […] We counted the peroxisomes after 10 days of treatment (Table 3). Slides were scanned visually and cells categorized as having low, medium or high numbers of peroxisomes. For each cell line, the number of peroxisomes is the mean of three ‘low’, four ‘medium’ and three ‘high’ cells (Table 3). There was no difference between control cells and X-ALD cells in either the number of peroxisomes per cell or in the response to 4-PBA. […] The 2.4-fold increase in the number of peroxisomes per cell was statistically significant (P<0.0000001, two-tailed Student's t-test). Peroxisome numbers obtained with an antibody against a peroxisomal membrane protein (Pex14p) gave similar results (data not shown).
# Immunofluorescence and peroxisome counting. […] The anti-SKL (PTSI) antibody was a gift from S. Gould and the anti-Pex11α antibody was a gift from S. Mihalik. To count peroxisomes, we photographed immunofluorescence-stained cells after focusing on the cell nucleus, and determined the peroxisome number per cell with the aid of a colon counter after projecting the slides to enlarge the image.
smiles,measurement,setting,value
"O=C(O)CCCc1ccccc1 [4-PBA, 4-Phenyl butyrate]",PMP69 expression level,PMP69,"little, if any, effect"
same,ALDP expression (mRNA),ALDP,"little, if any, effect"
same,PMP70 expression level,PMP70,"little, if any, effect"
same,PPARα expression,"PPARα; human X-ALD fibroblasts, even after 10 days of treatment",unchanged
same,PPARα expression,"PPARα; mouse X-ALD fibroblasts, as early as 2 days after treatment",increased
same,ALDRP protein level,ALDRP,not increased
same,"peroxisome number, Increase",[1]; Mean of four normal cell lines,2.3 fold
same,"peroxisome number, Treated",[1]; Mean of four normal cell lines,939 ± 78 peroxisomes per cell
same,"peroxisome number, Increase",[1]; cell line Normal GM 5565,2.3 fold
same,"peroxisome number, Treated",[1]; cell line Normal GM 5565,961 ± 383 peroxisomes per cell
same,"peroxisome number, Increase",[1]; cell line Normal GM 5659C,2.3 fold
same,"peroxisome number, Treated",[1]; cell line Normal GM 5659C,907 ± 270 peroxisomes per cell
same,"peroxisome number, Increase",[1]; cell line Normal GM 5756,2.3 fold
same,"peroxisome number, Treated",[1]; cell line Normal GM 5756,852 ± 271 peroxisomes per cell
same,"peroxisome number, Increase",[1]; cell line Normal GM 5757A,2.4 fold
same,"peroxisome number, Treated",[1]; cell line Normal GM 5757A,1035 ± 338 peroxisomes per cell
